From patent publication US12157869B2, “Methods and compositions for reducing persistent odor in clothing and mitigating biofilms on various materials” (priority 2019, dated 2024)
Where a name gives a salt, the structure may show the parent alone.

Columns and labels:
[1] = test system: biofilm matter in clothing; assay: UV light visualization of fluorescence of suspected biofilm matter in clothing (optical brightener / Calcofluor White)
Protocol: Three UV lamps were used in testing fluorescence in potential biofilms. These included a Lightfe® UV301D lamp providing a beam at 365 nm, a UVBeast V3 lamp operating at 395 nm, and a UV Nova 108-LED UV lamp operating at 395 nm.
In one approach, biofilm candidates were stained using Calcofluor White M2R dye, a fluorescent brightener purchased from Phyto Technology Laboratories (Shawnee Mission, Kansas), CAS No. 4404-43-7. A solution was prepared of 0.074% Calcofluor white in water, and given the name CF1.
In examining fluorescence, it was eventually noted that both an SLR camera and an iPhone camera could not easily capture the fine details of fluorescence when using any of the UV lamps available for this study, probably because the fluorescence, including some background fluorescence, may have interfered with the camera's visible light operations. […] A rubber band was sufficient for holding it in place.

[2] = test system: persistent odor (perma-odor) in clothing; assay: Odor evaluation of treated clothing by smelling (odor level on a scale of 0 to 5)
[3] = test system: darkened regions believed to be biofilm remnants in clothing; assay: Visible-light inspection of darkened or yellow regions in clothing; details: shirt CH1; left pit 6 g 2.1% NAC then 1.95 g E3; right pit 2.1 g E3 without NAC; about 20 min, short cycle 30°C Purex
Description: FIG. 10A depicts the left pit of shirt CH1 in visible light after the treatments described previously (as well as the treatment with optical brighter). A dark region 202 is still present that appears to come from within the fabric rather than resting on its surface. It is believed to come from biofilm material such as polysaccharides, proteins, and genetic material, that is capable of adhering to optical brighteners such as CF1 solution. FIG. 10B depicts the same region in UV light using the UVBeast V3 lamp. The dark region 202 of FIG. 10A is now a fluorescent region 204 with the appearance of a purple color, believed to result from Calcofluor White fluorescence couple with the dark matter's blocking of the fluorescence of the shirt material itself. […] The fluorescence in CH1 was bright enough to be detected even with the orange dye of the shirt brightly fluorescing at the same time.

SMILES: O=C(O)CC(O)(CC(=O)O)C(=O)O [sodium citrate]
- fluorescence of previously treated pits ([1]; shirt RA1, 12% sodium citrate solution 7 g then 1.72 g E3D, about 30°C 3 hours, Lemon Brite): only very slight improvement at best
- reddish fluorescent zone ([1]; shirt RA1, 12% sodium citrate solution then E3D): significant reduction
- fluorescence of previously untreated spot ([1]; shirt RA1, 12% sodium citrate solution then E3D, about 30°C 3 hours, also slightly smaller in extent): significantly reduced in brightness
- fluorescence of two zones of right pit ([1]; shirt RA1, each about 2.3 g 12% citrate solution, lower zone also 1.86 g E3D, 40-45°C two hours): only little reduction in fluorescence

SMILES: CC(=O)N[C@@H](CS)C(=O)O [NAC, N-acetyl cysteine]
- odor after one work day, shirt AA left pit ([2]; 2.1% NAC and NIC, wash): remained smelling fresh
- odor after one work day, shirt AA right pit ([2]; 2.1% NAC, NIC and 2 g E2, wash): smell again
- owner's report after wash and exercise, shirt WL ([2]; left pit 4.8 g 2% NAC (pH 7.8), 2 min, 6.5 g NIC, 10 min, 5 g NIC, liquid Tide): substantial improvement
- odor after heavy exercise, shirt RL ([2]; right pit 2% NAC pH 7.8 then NIC, left pit NIC only, washed): strong odor
- odor level after washing and exercise, shirt BL right pit ([2]; right pit 2.1% NAC, EGCD-2, left pit about 2, scale of 0 to 5): ~1
- odor after washing and exercise, shirt WL ([2]; right pit 2.1% NAC, EGCD-B, NIC): very little odor
- odor level after washing and exercise, shirt RL ([2]; right pit 2.1% NAC, EGCD-B, NIC, both pits about the same, scale of 0 to 5): about 2
- odor following exercise, shirt AB ([2]; right pit 8.2 g 2.1% NAC, 3.3 g NIC, 5.4 g LPS1, wash): smell better in general
- residual odor after wash, shirt RL ([2]; right pit 9.1 g 2% NAC pH 7.8, 11 min, 5.8 g NIC, left pit 10 g NIC only): appeared to have been eliminated
- odor level after washing and drying ([2]; shirt BD1 right pit, 5.2 g 2.1% NAC (pH 4) then 2.9 g E3C, Purex, about 3 before, untreated left pit about 1, scale of 1 to 5): 0
- odor after handwash and air drying ([2]; shirt CH1, right pit 3.2% NAC solution (2 g outside and inside), 2 min, then NIC 4.83 g, left pit NIC only 7.4 g, 5 min): smelled better than the left
- odor intensity after exercise and 48 hours storage at room temperature ([2]; shirt CH1, right pit second treatment: 8 ml NAC solution (600 mg effervescent tablet in 100 ml) then 5.3 ml EGCD-A, 20 min, left pit earlier NIC only, 0 to 5 scale): 2 to 3
- odor rating after further exercise, left pit ([2]; shirt CH1 left pit, 10 g 2% NAC solution 10 min, 9 g NIC 15 min, rinse, wash (Bright Blue Moon), scale 0 to 5): 2 to 3
- odor after exercise relative to left pit ([2]; shirt CH1 right pit, 2% NAC solution, washed, odor level about 5 before): significantly reduced
- odor level after washing ([2]; shirt CH1 right pit, 2.4 g pH 3.0 NAC solution, 5 min, short cycle with Bright Blue Moon, scale of 0 to 5): about 0.5
- odor after handwash and drying ([2]; shirt CH1 right pit, 21 g 2% NAC solution, 5.94 g EGCD-A, 10 min, 7 g NIC, about 10 min): no odor
- odor rating after further exercise, right pit ([2]; shirt CH1 right pit, earlier NAC, EGCD-A and NIC treatments, scale 0 to 5): about 1
- odor after washing and air drying ([2]; shirt Dec1 right pit, 1.6 g of 1.8% NAC solution (pH about 2), then standard wash with Bright Blue Moon enzymatic detergent): some odor
- odor of treated pits after wash ([2]; shirts AA, AB, AC, 2.1% NAC solution, about 10 min, then NIC (some pits also E2 or LPS1), 15 min, wash with Bright Blue Moon, versus untreated pits or pits without NAC): smelled better than before
- odor after washing ([2]; shirts RL, BL, WL right pits, 2.1% NAC solution 12-13.5 g, then EGCD-B or EGCD-2, then NIC (RL, WL), owner's report): significantly reduced odor
- fluorescent zones after wash ([1]; shirt BD1, right pit 2.1% NAC (pH 4) then E3C): slightly decreased in intensity
- intensity of fluorescent zones after wash ([1]; shirt BD1, right pit 5.2 g 2.1% NAC pH 6.4 then 3.0 g E3D, left pit water then 3.28 g E3D, about 33°C 2 hours, full cycle 40°C Tide): may have decreased slightly
- fluorescence after CF1 staining, left pit ([1]; shirt CH1, 2.1% NAC then E3, wash, Lightfe UV301D 365 nm): perhaps weaker than initially seen
- fluorescence after wash ([1]; shirt RA1, left pit 4.54 g 2.1% NAC then 10.7 g E3D, right pit 9.2 g E3D only, about 33°C 2 hours, short cycle 30°C Purex): significant reduction in fluorescence
- residual fluorescence, lower versus upper half of left pit ([1]; shirt RA1, lower half 2.15% NAC (pH 6.4 and 9.17), upper half water, both CellulaseC 5.6 g and AmylaseA 1.94 g, about 28°C 30 min): declined more strongly
- darkened regions after wash [3]: perhaps slightly lighter
